Measurements taken from ChEMBL document CHEMBL1144916, “Identification of N,N-disubstituted phenylalanines as a novel class of inhibitors of hepatitis C NS5B polymerase” (J Med Chem, 2003).

Target: RNA-directed RNA polymerase (Hepacivirus hominis, UniProt O39930)
Assay: Inhibitory activity against Hepatitis C RNA dependent RNA polymerase Nonstructural protein 5B (NS5B polymerase) expressed from baculovirus-infected Sf9 insect cells

Chain of RNA-directed RNA polymerase (O39930 whole entry): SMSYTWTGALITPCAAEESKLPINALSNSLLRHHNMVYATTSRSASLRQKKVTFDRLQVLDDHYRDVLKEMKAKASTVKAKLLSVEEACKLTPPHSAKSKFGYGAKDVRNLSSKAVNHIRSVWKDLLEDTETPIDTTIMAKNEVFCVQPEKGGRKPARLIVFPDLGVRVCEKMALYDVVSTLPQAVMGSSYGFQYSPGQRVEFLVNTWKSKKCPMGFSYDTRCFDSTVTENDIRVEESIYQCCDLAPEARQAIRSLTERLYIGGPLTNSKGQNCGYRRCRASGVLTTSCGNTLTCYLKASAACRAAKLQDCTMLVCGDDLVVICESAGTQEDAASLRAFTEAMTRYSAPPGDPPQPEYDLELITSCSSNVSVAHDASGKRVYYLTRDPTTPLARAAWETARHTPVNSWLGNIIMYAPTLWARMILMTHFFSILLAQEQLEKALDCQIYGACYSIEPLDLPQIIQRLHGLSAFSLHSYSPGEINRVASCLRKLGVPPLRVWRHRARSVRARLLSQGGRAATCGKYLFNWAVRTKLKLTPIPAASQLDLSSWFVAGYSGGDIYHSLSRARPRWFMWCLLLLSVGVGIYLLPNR

IC50 [µM] | Structure (SMILES)
8 | O=C(O)[C@H](Cc1ccccc1)N(Cc1ccccc1Br)C(=O)c1ccc(Cl)cc1Cl
3.5 | O=C(O)[C@H](Cc1ccccc1)N(Cc1cccc(Br)c1)C(=O)c1ccc(Cl)cc1Cl
0.7 | O=C(O)[C@H](Cc1ccccc1)N(Cc1cccc([N+](=O)[O-])c1)C(=O)c1ccc(Cl)cc1Cl
3.1 | O=C(O)[C@H](Cc1ccccc1)N(Cc1ccc(Br)s1)C(=O)c1ccc(Cl)cc1Cl
0.62 | COc1ccc(-c2ccc(Cl)cc2)c(COc2ccc(-c3nc4cc(C(=O)O)ccc4n3C3CCCCC3)cc2)c1
8 | O=C(O)[C@H](Cc1ccccc1)N(Cc1ccccc1)C(=O)c1ccc(Cl)cc1Cl
2.7 | O=C(O)[C@H](Cc1ccccc1)N(Cc1ccc[n+]([O-])c1)C(=O)c1ccc(Cl)cc1Cl
1.8 | Cc1cccc(CN(C(=O)c2ccc(Cl)cc2Cl)[C@@H](Cc2ccccc2)C(=O)O)c1
3.2 | O=C(O)[C@H](Cc1ccccc1)N(Cc1cccc(F)c1)C(=O)c1ccc(Cl)cc1Cl
0.8 | N#Cc1cccc(CN(C(=O)c2ccc(Cl)cc2Cl)[C@@H](Cc2ccccc2)C(=O)O)c1
11 | O=C(O)[C@H](Cc1ccccc1)N(Cc1cccc(Br)c1)C(=O)c1ccc(Cl)cc1
53 | O=C(O)CN(Cc1cccc(Br)c1)C(=O)c1ccc(Cl)cc1Cl
8.6 | O=C(O)[C@@H](Cc1ccccc1)N(Cc1cccc(Br)c1)C(=O)c1ccc(Cl)cc1Cl
8.6 | O=C(O)[C@H](Cc1ccccc1)N(Cc1ccc(-c2cc3ccccc3o2)s1)C(=O)c1ccc(Cl)cc1Cl
9.1 | O=C(O)[C@H](Cc1ccccc1)N(Cc1ccc(Br)cc1)C(=O)c1ccc(Cl)cc1Cl
15 | O=C(O)[C@H](Cc1ccccc1)N(Cc1cccc(Br)c1)C(=O)c1ccccc1Cl
6 | N#Cc1ccccc1CN(C(=O)c1ccc(Cl)cc1Cl)[C@@H](Cc1ccccc1)C(=O)O
8 | N#Cc1ccc(CN(C(=O)c2ccc(Cl)cc2Cl)[C@@H](Cc2ccccc2)C(=O)O)cc1
11 | O=C(O)[C@H](Cc1ccccc1)N(Cc1cccnc1)C(=O)c1ccc(Cl)cc1Cl
5.7 | O=C(O)[C@H](Cc1ccccc1)N(Cc1ccc(-c2nccs2)cc1)C(=O)c1ccc(Cl)cc1Cl
1.4 | O=C(O)[C@H](Cc1ccccc1)N(Cc1cccc(Cl)c1)C(=O)c1ccc(Cl)cc1Cl

Structure (SMILES) | IC50 [µM]
O=C(O)[C@H](Cc1ccccc1)N(Cc1cccc(C(F)(F)F)c1)C(=O)c1ccc(Cl)cc1Cl | 1.7
